Measurements taken from patent publication US11345707B2, “Atropisomerism for increased kinase inhibitor selectivity” (SAN DIEGO STATE UNIVERSITY RESEARCH FOUNDATION, priority 2015, dated 2022).

Columns and labels:
[1] = Experimental measurement of the barriers to rotation (racemization followed by chiral HPLC); type: physicochemical
Description: The enantiomerically enriched analogues were then dissolved in ethanol and placed in a sealed 2-dram vial and heated under constant temperature on an aluminum block. At each time point, an aliquot of the mixture was removed and quenched in an HPLC vial containing ice cold 80:20 hexanes:ethanol. […] The timepoint and enantiomeric excess (ee) data was then plotted in order to determine an observed rate constant, kobs, at the corresponding temperature. The barrier to rotation was then calculated using the relationship of kracemization=2*kenantiomerization and then substituted into the Gibbs Free Energy Equation:
[formula] where h=Planck Constant, kb=Boltzmann Constant, T=Temp. (K), R=Gas Constant.

[2] = tested on: panel of tyrosine kinases; assay: Kinase inhibitor profiling across a panel of tyrosine kinases (Z′-LYTE), selectivity score; type: biochemical
Description: To analyze each analog's selectivity across the panel we turned to selectivity scores (Davis et al., Nat. Biotechnol. 2011, 29, 1046-51), simply the number of kinases inhibited above a certain threshold divided by the number of kinases evaluated. […] For example at 1000 nM 2e-(R) yielded an S(40%) of 0.11 while 2e-(S) gave an S(40%) of 0.16. […] Differences in selectivity between 2e-(R) and 2e-(S) at 5000 nM (4.5 times the IC50 of 2e-(S) toward Src) and for 5 at 1000 nM (6.25 times the IC50 of 5 toward Src) can be viewed graphically across tyrosine kinases (FIG. 3). Importantly, similar trends were also observed across each of the atropisomeric series tested.
All samples were sent out to Life Technologies to obtain kinase inhibition data. A brief description of the assays and analyses are included below.
Assay Theory (SelectScreen® Kinase Profiling Services (Life Technologies, Madison, Wis. USA). The Z′-LYTE® biochemical assay employs a fluorescence-based, coupled-enzyme format and is based on the differential sensitivity of phosphorylated and non-phosphorylated peptides to proteolytic cleavage. The peptide substrate is labeled with two fluorophores—one at each end—that make up a FRET pair.
In the primary reaction, the kinase transfers the gamma-phosphate of ATP to a single tyrosine, serine or threonine residue in a synthetic FRET-peptide. In the secondary reaction, a site-specific protease recognizes and cleaves non-phosphorylated FRET-peptides. Phosphorylation of FRET-peptides suppresses cleavage by the Development Reagent. Cleavage disrupts FRET between the donor (i.e., coumarin) and acceptor (i.e., fluorescein) fluorophores on the FRET-peptide, whereas uncleaved, phosphorylated FRET-peptides maintain FRET. A ratiometric method, which calculates the ratio (the Emission Ratio) of donor emission to acceptor emission after excitation of the donor fluorophore at 400 nm, is used to quantitate reaction progress, as shown in the equation below: […]
A significant benefit of this ratiometric method for quantitating reaction progress is the elimination of well-to-well variations in FRET-peptide concentration and signal intensities. As a result, the assay yields very high Z′-factor values (>0.7) at a low percent phosphorylation. Both cleaved and uncleaved FRET-peptides contribute to the fluorescence signals and therefore to the Emission Ratio. The extent of phosphorylation of the FRET-peptide can be calculated from the Emission Ratio. The Emission Ratio will remain low 1f the FRET-peptide is phosphorylated (i.e., no kinase inhibition) and will be high 1f the FRET-peptide is non-phosphorylated (i.e., kinase inhibition).
Both cleaved and uncleaved FRET-peptides contribute to the fluorescence signals and therefore to the Emission Ratio. The extent of phosphorylation of the FRET-peptide can be calculated from the Emission Ratio. The Emission Ratio will remain low 1f the FRET-peptide is phosphorylated (i.e., no kinase inhibition) and will be high 1f the FRET-peptide is non-phosphorylated (i.e., kinase inhibition).

t1/2 to Racemization at 37° C. [1]	S(40%): number of kinases inhibited greater than 40% divided by number of kinases tested (including Src) ([2]; 200 nM)	activity for the tyrosine kinase panel tested ([2]; 200 nM and 1000 nM)	Compound	S(40%): number of kinases inhibited greater than 40% divided by number of kinases tested (including Src) ([2]; 1000 nM)	S(40%): number of kinases inhibited greater than 40% divided by number of kinases tested (including Src) ([2]; 5000 nM)
18 days	–	–	COc1ccc(Cl)c(-c2c(Cl)n(C3CCCC3)c3ncnc(N)c23)c1 (racemic) [Compound 1e, 6-chloro-5-(2-chloro-5-methoxyphenyl)-7-cyclopentyl-7H-pyrrolo[2,3-d]pyrimidin-4-amine]	–	–
–	–	–	COc1ccc(Cl)c(-c2c(Cl)n(C(C)(C)C)c3ncnc(N)c23)c1 (single isomer, unassigned) [2e-(R), 7-(tert-butyl)-6-chloro-5-(2-chloro-5-methoxyphenyl)-7H-pyrrolo[2,3-d]pyrimidin-4-amine]	0.11	0.44
–	–	–	COc1ccc(Cl)c(-c2c(Cl)n(C(C)(C)C)c3ncnc(N)c23)c1 (single isomer, unassigned) [2e-(S), 7-(tert-butyl)-6-chloro-5-(2-chloro-5-methoxyphenyl)-7H-pyrrolo[2,3-d]pyrimidin-4-amine]	0.16	0.61
–	0.44	near pan activity	COc1cccc(-c2cn(C(C)(C)C)c3ncnc(N)c23)c1 [Compound 5, reference compound]	0.72	–
